Measured values: article PMC12469672, “Effects on Oral Squamous Carcinoma Cell Lines and Their Mechanisms of Pyrazole N-Aryl Sulfonate: A Novel Class of Selective Cyclooxygenase-2 Inhibitors” (International Journal of Molecular Sciences, 2025)
Where two headings read alike, the source gives them in different places.

How the values were obtained:
CAL-27 cells = assay: CCK-8 proliferation assay, CAL-27; format: cell-based; settings: for IC50: Homo sapiens; for Selectivity Index CAL-27: SI = IC50,VERO/IC50,CAL-27
Method: (§1) The OSCC cell lines CAL-27 (STCC12901P, Servicebio, Wuhan, China) and SAS (CC0706, Cellcook, Guangzhou, China) were cultured in Dulbecco Modified Eagle Medium F12 (DMEM/F12) (G4610-500ML, Servicebio, Wuhan, China) supplemented with 10% fetal bovine serum (FBS) (AB-FBS-DIA1050, ABW, Shanghai, China) and 100 U/mL penicillin-streptomycin-gentamicin solution (G4014-100ML, Servicebio, Wuhan, China). VERO cells were cultured in DMEM (G4524-500ML, Servicebio, Wuhan, China) supplemented with 10% FBS (AB-FBS-DIA1050, ABW, China) and 100 U/mL penicillin–streptomycin–gentamicin solution (G4014-100ML, Servicebio, Wuhan, China). […] were maintained at 37 °C in a humidified 5% CO2 incubator. For experiments, 1 × 10^6 cells were seeded per T-25 culture flask.
(§2) CAL-27, SAS, and VERO cells were seeded in 96-well plates at a density of 5000 cells per well. At specified time intervals, 10 μL of Cell Counting Kit-8 (CCK-8) reagent (K1018, Apexbio, Boston, MA, USA) was added to each well and incubated for 2 h. Absorbance at 450 nm was measured using a microplate reader (Infinite M200 Pro, Tecan Group, Männedorf, Switzerland).

SAS cells [1] = assay: CCK-8 proliferation assay, SAS; format: cell-based; settings: for IC50: SAS; for Selectivity Index SAS: SI = IC50,VERO/IC50,SAS
Method: as §1, §2

VERO cells = assay: CCK-8 cytotoxicity assay, VERO; format: cell-based, African green monkey; settings: for IC50: Chlorocebus sabaeus, VERO, CCK-8, 24 h; for proliferation rate of VERO cells / cytotoxicity in VERO cells: working concentrations; for proliferation rate of VERO cells: 24 h, vs control; for cytotoxicity in VERO cells: vs CXB
Method: as §1, §2

[2] = tested on: COX-2 mRNA in CAL-27 cells; assay: RT-qPCR COX-2 mRNA, CAL-27; format: cell-based; settings: CAL-27, working concentrations, 24 h
Method: (§3) Equal amounts of RNA were reverse transcribed into cDNA using the Reverse Transcription Kit (AG11705, Accurate Biology, Guangzhou, China) following the manufacturer’s instructions. Quantitative PCR was performed on a QIAGEN Rotor-GeneQ system (9001862, QIAGEN, Hilden, Germany) with SYBR Green Pro Taq HS Premix II (AG11702, Accurate Biology, China).
(§4) The PCR protocol consisted of initial denaturation at 95 °C for 30 s, followed by 40 cycles of 95 °C for 5 s and 60 °C for 30 s. All reactions were performed in triplicate, with melting curve analysis confirming amplification specificity. The expression of the target genes was normalized to GAPDH, and fold changes were calculated in the manner of the 2^−ΔΔCT .

[3] = tested on: COX-2 protein in CAL-27 cells; assay: Western blot COX-2, CAL-27; format: cell-based; settings: CAL-27, vs control group and CXB-treated group
Method: Cell lysates were centrifuged at 12,000× g for 10 min at 4 °C and then quantified using the BCA Protein Assay Kit (CW0014S, Cwbio, Taizhou, China). The lysate was denatured with sodium dodecyl sulfate–polyacrylamide gel electrophoresis (SDS-PAGE) sample loading buffer (P1040, Solarbio, Beijing, China), followed by SDS-PAGE and electrotransfer to polyvinylidene difluoride membranes (10600023, Cytiva, Marlborough, MA, USA). The membranes were incubated overnight at 4 °C with GAPDH (1:5000, 1049-1-AP, Proteintech Group, Wuhan, China), anti-PTGS2 (1:2000, 12375-1-AP, Proteintech Group, China), anti-BAX (1:1000, ab777, Abcam, Cambridge, UK), anti-BCL2 (1:5000, ET1702-53, HUABIO, Hangzhou, China), anti-BCL-XL (1:8000, 10783-1-AP, Proteintech Group, China), anti-MMP2 (1:3000, 66366-1-Ig, Proteintech Group, China), anti-MMP9 (1:3000, 10372-2-AP, Proteintech Group, China), anti-JAK1 (1:3000, 66466-1-Ig, Proteintech Group, China), anti-phospho-JAK1 (1:400, GB115604-100, Servicebio, China), anti-STAT3 (1:2000, 10253-2-AP, Proteintech Group, China), and anti-phospho-STAT3 (1:1000, 39595, Activemotif, Shanghai, China) at the appropriate dilution and then incubated with the secondary antibody at room temperature for 1.5 h. The bands were visualized by employing an ECL detection reagent (36208ES76, Yeasen, Shanghai, China) and independently quantified twice using ImageJ (v1.8.0.322) and ChemiScope Analysis (Version 2.1.6.0) software. Subsequently, the obtained data were normalized to GAPDH.

[4] = tested on: CYP19A1 mRNA in SAS cells; assay: RT-qPCR CYP19A1 mRNA, SAS; format: cell-based; settings: vs control group and CXB-treated group
Method: as §3, §4

SAS cells [5] = assay: Transwell migration assay, SAS; format: cell-based; settings: 24 h treatment at working concentrations, vs control
Method: Following 24 h drug treatment at the predefined working concentrations, CAL-27 and SAS cells (5 × 10^5 cells/mL in serum-free medium) were seeded in Transwell upper chambers (200 μL/well, 1 × 10^5 cells) with 700 μL complete medium containing 10% FBS in lower chambers. After 36 h of incubation (37 °C, 5% CO2), the cells from the upper surface of the membrane were wiped off using a cotton swab, whereupon migrated cells were fixed (4% paraformaldehyde [P0099-100 mL, Beyotime, Haimen, China], 4 °C, 4 h), stained (0.1% crystal violet [C0121-100 mL, Beyotime, China], 30 min), and quantified by counting five random fields under a microscope (CX23, Olympus, Tokyo, Japan) using ImageJ (v1.8.0.322), with triplicate wells per condition.

[6] = tested on: MMP2 mRNA in CAL-27 cells; assay: RT-qPCR MMP2 mRNA, CAL-27; format: cell-based; settings: CAL-27, 24 h, vs control
Method: as §3, §4

[7] = tested on: MMP9 mRNA in CAL-27 cells; assay: RT-qPCR MMP9 mRNA, CAL-27; format: cell-based; settings: CAL-27, 24 h, vs control
Method: as §3, §4

BCL2 mRNA in SAS cells = assay: RT-qPCR BCL2 mRNA, SAS; format: cell-based; settings: vs NC and CXB groups
Method: as §3, §4

[8] = tested on: JAK/STAT signaling pathway in SAS cells; assay: Western blot JAK/STAT signaling pathway, SAS; format: cell-based
Method: Cell lysates were centrifuged at 12,000× g for 10 min at 4 °C and then quantified using the BCA Protein Assay Kit (CW0014S, Cwbio, Taizhou, China). The lysate was denatured with sodium dodecyl sulfate–polyacrylamide gel electrophoresis (SDS-PAGE) sample loading buffer (P1040, Solarbio, Beijing, China), followed by SDS-PAGE and electrotransfer to polyvinylidene difluoride membranes (10600023, Cytiva, Marlborough, MA, USA). […] The bands were visualized by employing an ECL detection reagent (36208ES76, Yeasen, Shanghai, China) and independently quantified twice using ImageJ (v1.8.0.322) and ChemiScope Analysis (Version 2.1.6.0) software. […]

[9] = cited from earlier work
[10] = cited from earlier work; remark: listed apart in the source
[11] = CAL-27, 24 h, CAL-27, CCK-8, 24 h, given as a range, read-out: IC50 (range)
[12] = CAL-27, CAL-27, CCK-8, read-out: IC50 CAL-27
[13] = CCK-8, 24 h, given as a range, read-out: IC50 (range)

Row | SMILES | IC50 (CAL-27 cells; [11]) | IC50 (CAL-27 cells; [12]) | Selectivity Index CAL-27 (CAL-27 cells) | IC50 (SAS cells [1]; [13]) | IC50 (SAS cells [1]; CCK-8, read-out: IC50 SAS) | Selectivity Index SAS (SAS cells [1]) | IC50 (VERO cells) | proliferation rate of VERO cells (VERO cells) | cytotoxicity in VERO cells (VERO cells) | COX-2 mRNA level ([2]; vs CXB-treated group) | COX-2 mRNA level ([2]; vs control) | COX-2 protein expression (Western blot) [3] | CYP19A1 mRNA expression [4] | migratory capacity (Transwell) (SAS cells [5]) | MMP2 mRNA expression [6] | MMP9 mRNA expression [7] | BCL2 mRNA expression (BCL2 mRNA in SAS cells) | anti-inflammatory and analgesic activities [9] | oral toxicity [10] | other results
1 | Cc1ccc(-c2cc(C)n(S(=O)(=O)Oc3ccc(I)cc3)n2)cc1 [Compound 4b] | 38.9 to 43.8 µM | 41.4 µM | 2.47 | 26 to 34.6 µM | 30.2 µM | 3.40 | 102 µM | remained largely unchanged | lower cytotoxicity than CXB | significantly lower | significantly downregulated | significantly reduced | significantly reduced | significantly reduced | significantly downregulated | significantly downregulated | significantly suppressed | excellent | low oral toxicity | p-JAK1 level (Western blot) [8]: no significant change
2 | Cc1ccc(-c2cc(C)n(S(=O)(=O)Oc3ccccc3Cl)n2)cc1 [Compound 4d] | 44.3 to 55.1 µM | 53.9 µM | >1.86 | 7.46 to 24.3 µM | 16.7 µM | >6.00 | > 100 µM | remained largely unchanged | lower cytotoxicity than CXB | significantly lower | significantly downregulated | significantly reduced | significantly reduced | significantly reduced | significantly downregulated | significantly downregulated |  | excellent | low oral toxicity | total JAK1 (Western blot) ([8]; vs NC): reached statistical significance
3 | Cc1cc(-c2ccco2)nn1S(=O)(=O)Oc1ccccc1Cl [Compound 5f] | 52.9 to 74.8 µM | 64.2 µM | 3.50 | 59.4 to 69.5 µM | 64.2 µM | 3.50 | 225 µM | moderate inhibitory effect | lower cytotoxicity than CXB | significantly lower | significantly downregulated | significantly reduced | significantly reduced | significantly reduced | significantly downregulated | significantly downregulated | significantly suppressed |  |  | 
